In patent US8637523B2, “Compounds for the reduction of beta-amyloid production” (Bristol-Myers Squibb Company, priority 2010, dated 2014) one finds IC50 data, which are given here for 23 compounds.

The experiment relates to Aβ42. Description: Cellular assay for inhibition of Aβ1-42 production (H4 APP751 SWE clone 8.20). The format is cell-based. The following applies: H4 APP751 SWE clone 8.20 cells, 19 h incubation. The method, then:
Cellular Assays for Inhibition of Aβ1-40 and Aβ1-42 Production
H4 cells stably transfected with APP751 containing the Swedish mutation (H4 APP751 SWE clone 8.20, developed at BMS) were maintained in log phase through twice weekly passage at a 1:20 split. […] Following incubation for 19 h in 5% CO2 at 37° C., plates were briefly centrifuged (1000 rpm, 5 min). A 10 μl aliquot from each well was transferred to a second assay plate (Costar 3709) for Aβ40 measurements. Antibody cocktails were freshly prepared by dilution into 40 mM Tris-HCl (pH 7.4) with 0.2% BSA and added to assay plates. For Aβ42 measurements, antibodies specific for the Aβ42 neoepitope (565, developed at BMS; conjugated to the Wallac reagent (Perkin Elmer)) and the N-terminal sequence of Aβ peptide (26D6, developed at SIBIA; conjugated to APC (Perkin Elmer)) were mixed and 20 μl of the mixture was added to each well of the incubated cell plate yielding a final concentration of 0.8 ng/well 565 and 75 ng/well 26D6. For the Aβ40 measurements, antibodies specific for the Aβ40 neoepitope (TSD, developed at BMS; conjugated to the Wallac reagent (Perkin Elmer)) and 26D6 as described above were mixed and 20 μl of the mixture was added to the 10 μl aliquots which had been removed previously from the cell plate yielding a final concentration of 1.6 ng/well TSD and 17.5 ng/well 26D6. Assay plates containing antibodies were sealed with aluminum foil and incubated overnight at 4° C. Signal was determined using a Viewlux counter (Perkin Elmer) and IC50 values determined using curve fitting in CurveMaster (Excel Fit based).

[1] abbreviates: read-out: Activity Rating (Aβ42 cellular IC50), class symbol.
Where [2] appears, read: 19 h, read-out: Activity Rating (Aβ42 cellular IC50), class symbol.
Setting [3] is: 19 h, unit inferred, read-out: Activity Rating (Aβ42 cellular IC50), numeric value.

Like-named read-outs stand apart in the source and are kept apart here. Bounds are passed on as bounds.

On to `N#Cc1ccc2cc1OCC(O)CCNc1nc(nc3c1CCC3c1ccc(F)cc1)N2` (single isomer, unassigned) [Example 73C, 7-cyano-18-(4-fluorophenyl)-10,11,12,13,14,16,17,18-octahydro-15,2-(azeno)-8,4-(metheno)cyclopenta[h][1,6,10,12]oxatriazacycloheptadecin-11(3H)-ol], for which the IC50 under setting [1] lay in the range of 10 to 100 nM.

In the case of `CN1CC=CCOc2cc(ccc2-n2cnc(Cl)c2)Nc2nc3c(c1n2)CCC3c1ccccc1` (centres unmarked) [Example 3A, (11Z)-7-(4-chloro-1H-imidazol-1-yl)-14-methyl-18-phenyl-10,13,14,16,17,18-hexahydro-15,2-(azeno)-8,4-(metheno)cyclopenta[h][1,6,10,12]oxatriazacycloheptadecine], the IC50 under setting [1] was less than 10 nM. On the same count and under the same terms, under `CN1CC=CCOc2cc(ccc2-n2cnc(Cl)c2)Nc2nc3c(c1n2)CCC3c1ccccc1` (centres unmarked) [Example 3B, (11Z)-7-(4-chloro-1H-imidazol-1-yl)-14-methyl-18-phenyl-10,13,14,16,17,18-hexahydro-15,2-(azeno)-8,4-(metheno)cyclopenta[h][1,6,10,12]oxatriazacycloheptadecine] stands 10 to 100 nM. On the same count and under the same terms, under `CN1CC=CCOc2cc(ccc2-n2cnc(Cl)c2)Nc2nc3c(c1n2)CCC3c1ccccc1` (centres unmarked) [Example 4A, (11E)-7-(4-chloro-1H-imidazol-1-yl)-14-methyl-18-phenyl-10,13,14,16,17,18-hexahydro-15,2-(azeno)-8,4-(metheno)cyclopenta[h][1,6,10,12]oxatriazacycloheptadecine] stands less than 10 nM. For `CN1CC=CCOc2cc(ccc2-n2cnc(Cl)c2)Nc2nc3c(c1n2)CCC3c1ccccc1` (centres unmarked) [Example 4B, (11E)-7-(4-chloro-1H-imidazol-1-yl)-14-methyl-18-phenyl-10,13,14,16,17,18-hexahydro-15,2-(azeno)-8,4-(metheno)cyclopenta[h][1,6,10,12]oxatriazacycloheptadecine], the IC50 under setting [1] lay within 10 to 100 nM. On the same count and under the same terms, the result for `Clc1cn(-c2ccc3cc2OC/C=C/CCNc2nc(nc4c2CCC4c2ccccc2)N3)cn1` (centres unmarked) [Example 5A, (11E)-7-(4-chloro-1H-imidazol-1-yl)-19-phenyl-3,10,13,14,15,17,18,19-octahydro-2,16-(azeno)-8,4-(metheno)cyclopenta[j][1,7,9,13]oxatriazacyclooctadecine] reads less than 10 nM. With `Clc1cn(-c2ccc3cc2OC/C=C/CCNc2nc(nc4c2CCC4c2ccccc2)N3)cn1` (centres unmarked) [Example 5B, (11E)-7-(4-chloro-1H-imidazol-1-yl)-19-phenyl-3,10,13,14,15,17,18,19-octahydro-2,16-(azeno)-8,4-(metheno)cyclopenta[j][1,7,9,13]oxatriazacyclooctadecine], under setting [2], the IC50 is 10 to 100 nM. `CC1C/C=C\COc2cc(ccc2-n2cnc(Cl)c2)Nc2nc(c3c(n2)C(c2ccccc2)CC3)N1` (centres unmarked) [Example 6A, (11Z)-7-(4-chloro-1H-imidazol-1-yl)-14-methyl-19-phenyl-3,10,13,14,15,17,18,19-octahydro-2,16-(azeno)-8,4-(metheno)cyclopenta[j][1,7,9,13]oxatriazacyclooctadecine]: the IC50 under setting [3] worked out at 3.6 nM.

Take `CC1C/C=C\COc2cc(ccc2-n2cnc(Cl)c2)Nc2nc(c3c(n2)C(c2ccccc2)CC3)N1` (centres unmarked) [Example 6B, (11Z)-7-(4-chloro-1H-imidazol-1-yl)-14-methyl-19-phenyl-3,10,13,14,15,17,18,19-octahydro-2,16-(azeno)-8,4-(metheno)cyclopenta[j][1,7,9,13]oxatriazacyclooctadecine]: the IC50 under setting [2] is 10 to 100 nM. Regarding `CC1C/C=C/COc2cc(ccc2-n2cnc(Cl)c2)Nc2nc(c3c(n2)C(c2ccccc2)CC3)N1` (centres unmarked) [Example 7A, (11E)-7-(4-chloro-1H-imidazol-1-yl)-14-methyl-19-phenyl-3,10,13,14,15,17,18,19-octahydro-2,16-(azeno)-8,4-(metheno)cyclopenta[j][1,7,9,13]oxatriazacyclooctadecine], under setting [3], the half-inhibitory concentration (IC50) worked out at 8.8 nM. Regarding `CC1C/C=C/COc2cc(ccc2-n2cnc(Cl)c2)Nc2nc(c3c(n2)C(c2ccccc2)CC3)N1` (centres unmarked) [Example 7B, (11E)-7-(4-chloro-1H-imidazol-1-yl)-14-methyl-19-phenyl-3,10,13,14,15,17,18,19-octahydro-2,16-(azeno)-8,4-(metheno)cyclopenta[j][1,7,9,13]oxatriazacyclooctadecine], under setting [2], the IC50 lay within 100 to 1000 nM. Same read-out and setting: the result for `Clc1cn(-c2ccc3cc2OCCOCCNc2nc(nc4c2CCC4c2ccccc2)N3)cn1` (centres unmarked) [Example 8A, 7-(4-chloro-1H-imidazol-1-yl)-19-phenyl-10,11,13,14,15,17,18,19-octahydro-16,2-(azeno)-8,4-(metheno)cyclopenta[i][1,4,7,11,13]dioxatriazacyclooctadecine] reads less than 10 nM.

`Clc1cn(-c2ccc3cc2OCCCNc2nc(nc4c2CCC4c2ccccc2)N3)cn1` (centres unmarked) [Example 9A, 7-(4-chloro-1H-imidazol-1-yl)-17-phenyl-11,12,13,15,16,17-hexahydro-10H-14,2-(azeno)-8,4-(metheno)cyclopenta[g][1,5,9,11]oxatriazacyclohexadecine]: the IC50 under setting [2] is less than 10 nM. For the compound `Clc1cn(-c2ccc3cc2OCCCNc2nc(nc4c2CCC4c2ccccc2)N3)cn1` (centres unmarked) [Example 9B, 7-(4-chloro-1H-imidazol-1-yl)-17-phenyl-11,12,13,15,16,17-hexahydro-10H-14,2-(azeno)-8,4-(metheno)cyclopenta[g][1,5,9,11]oxatriazacyclohexadecine], the IC50 under setting [3] stood at 17 nM. For the compound `CN1CCCOc2cc(ccc2-n2cnc(Cl)c2)Nc2nc3c(c1n2)CCC3c1ccccc1` (centres unmarked) [Example 10A, 7-(4-chloro-1H-imidazol-1-yl)-13-methyl-17-phenyl-11,12,13,15,16,17-hexahydro-10H-14,2-(azeno)-8,4-(metheno)cyclopenta[g][1,5,9,11]oxatriazacyclohexadecine], the IC50 under setting [2] lay within 10 to 100 nM.

In the case of `Clc1cn(-c2ccc3cc2OCCCCCNc2nc(nc4c2CCC4c2ccccc2)N3)cn1` (centres unmarked) [Example 11A, 7-(4-chloro-1H-imidazol-1-yl)-19-phenyl-3,10,11,12,13,14,15,17,18,19-decahydro-2,16-(azeno)-8,4-(metheno)cyclopenta[f][1,7,9,13]oxatriazacyclooctadecine], the half-inhibitory concentration (IC50) under setting [3] came out at 3.8 nM. Turning to `Clc1cn(-c2ccc3cc2OCCCCCNc2nc(nc4c2CCC4c2ccccc2)N3)cn1` (centres unmarked) [Example 11B, 7-(4-chloro-1H-imidazol-1-yl)-19-phenyl-3,10,11,12,13,14,15,17,18,19-decahydro-2,16-(azeno)-8,4-(metheno)cyclopenta[f][1,7,9,13]oxatriazacyclooctadecine], the IC50 under setting [2] was in the range of 10 to 100 nM. With `Clc1cn(-c2ccc3cc2OCCCCNc2nc(nc4c2CCC4c2ccccc2)N3)cn1` (centres unmarked) [Example 12A, 7-(4-chloro-1H-imidazol-1-yl)-18-phenyl-10,11,12,13,14,16,17,18-octahydro-15,2-(azeno)-8,4-(metheno)cyclopenta[h][1,6,10,12]oxatriazacycloheptadecine], the IC50 under setting [2] was less than 10 nM. Consider `Clc1cn(-c2ccc3cc2OCCCCNc2nc(nc4c2CCC4c2ccccc2)N3)cn1` (centres unmarked) [Example 12B, 7-(4-chloro-1H-imidazol-1-yl)-18-phenyl-10,11,12,13,14,16,17,18-octahydro-15,2-(azeno)-8,4-(metheno)cyclopenta[h][1,6,10,12]oxatriazacycloheptadecine], for which, under setting [1], the IC50 was 10 to 100 nM.

In the case of `CN1CCCCOc2cc(ccc2-n2cnc(Cl)c2)Nc2nc3c(c1n2)CCC3c1ccccc1` (centres unmarked) [Example 13A, 7-(4-chloro-1H-imidazol-1-yl)-14-methyl-18-phenyl-10,11,12,13,14,16,17,18-octahydro-15,2-(azeno)-8,4-(metheno)cyclopenta[h][1,6,10,12]oxatriazacycloheptadecine], under setting [2], the IC50 is less than 10 nM. `CN1CCCCOc2cc(ccc2-n2cnc(Cl)c2)Nc2nc3c(c1n2)CCC3c1ccccc1` (centres unmarked) [Example 13B, 7-(4-chloro-1H-imidazol-1-yl)-14-methyl-18-phenyl-10,11,12,13,14,16,17,18-octahydro-15,2-(azeno)-8,4-(metheno)cyclopenta[h][1,6,10,12]oxatriazacycloheptadecine]: the IC50 under setting [3] worked out at 26 nM. As for `Fc1ccc(C2CCc3c4nc(nc32)Nc2ccc(-n3cnc(Cl)c3)c(c2)OCC=CCN4)c(F)c1` (centres unmarked) [Example 14A, (11Z)-7-(4-chloro-1H-imidazol-1-yl)-18-(2,4-difluorophenyl)-10,13,14,16,17,18-hexahydro-15,2-(azeno)-8,4-(metheno)cyclopenta[h][1,6,10,12]oxatriazacycloheptadecine], the IC50 under setting [1] is less than 10 nM.

Turning to `Fc1ccc(C2CCc3c4nc(nc32)Nc2ccc(-n3cnc(Cl)c3)c(c2)OCC=CCN4)c(F)c1` (centres unmarked) [Example 14B, (11Z)-7-(4-chloro-1H-imidazol-1-yl)-18-(2,4-difluorophenyl)-10,13,14,16,17,18-hexahydro-15,2-(azeno)-8,4-(metheno)cyclopenta[h][1,6,10,12]oxatriazacycloheptadecine], the IC50 under setting [1] fell in the range of 10 to 100 nM.
